Experimental data: US8084261B2, “Method for predicting responsiveness to a pharmaceutical therapy for obesity” (priority 2007, dated 2011)

What was measured:
[1] = tested on: TRL V6; assay: Cross therapeutic target rat study: reduction of circulating TRL V6 concentration after an acute dose (NMR LipoProfile); format: in vivo, DIO-LE rats; conditions: for Reduction in TRL V6 Response T1-(ie 2 hrs) / Reduction in TRL V6 Response T2-(ie 5 hrs) / Reduction in TRL V6 Response T3-(ie 18 hrs): DIO-LE rats on high fat chow, acute dose as in the Dose column; for Reduction in TRL V6 Response T1-(ie 2 hrs): T1 (ie 2 hrs) post dose; for Reduction in TRL V6 Response T2-(ie 5 hrs): T2 (ie 5 hrs) post dose; for Reduction in TRL V6 Response T3-(ie 18 hrs): T3 (ie 18 hrs) post dose; for reduction of circulating concentration of TRL V6 / time by which TRL V6 plasma concentration returns to baseline / reduction of circulating TRL V6 concentration: SNDRI 3 mg/kg; for time by which TRL V6 plasma concentration returns to baseline: post dose
Experimental: As a typical example, whole blood samples are collected into 2 ml EDTA blood collection tubes, inverted several times to mix well, and placed on ice. The samples are then centrifuged at approximately 3000 rpm for 10-15 minutes at 4° C. Upon completion of centrifugation, the tube is placed on ice and the plasma is drawn off The plasma is place into a polypropylene tube and kept at 4° C. until analysis. Samples may be analyzed at any time up to about 4 days after collection. Samples are analyzed for TRL V6 response, as for example by NMR plasma lipoprotein analysis, as for example, the NMR LipoProfile®, the NMR LipoProfile®-II or the NMR LipoProfile®-III lipoprotein tests provided by LipoScience, Inc. of Raleigh, N.C.
The ability of investigational weight loss pharmaceutical agents to reduce the TRL V6 concentration in rats is shown with three compounds targeting different mechanisms of action including a known potent and selective 5-HT2C receptor agonist, a known potent and selective CB-1 receptor antagonist/inverse agonist, and a potent SNDRI (sibutramine) Each of these compounds are known to induce weight loss in rats and thus the biomarker of reduction in TRL V6 concentration correlates to the investigational weight loss pharmaceutical agents' ability to induce weight loss. Conversely, an opiate antagonist, (naltrexone) which is known to be ineffective in inducing weight loss in rats or in overweight and obese human subjects (Malcolm R et al., Int. J. Obes. 1985; 9(5):347-53), is shown to not reduce the TRL V6 concentration in rats, again correlating the biomarker of reduction in TRL V6 concentration to the investigational weight loss pharmaceutical agents' ability to induce weight loss.
DIO-LE rats maintained on a high fat chow are administered either a vehicle dose or an acute dose of test compound. At specified time points post dose, animals are sacrificed and blood is collected in blood sample tubes containing EDTA and processed essentially as described above. Samples are analyzed by NMR LipoProfile® lipoprotein sub-particle test with report of all particle subtypes (specifically the TRL V6 concentration or particle number).

[2] = tested on: large triglyceride rich lipoprotein subclasses; assay: Human study with sibutramine: TRL response (AUC 5-11 hr) to fat load versus placebo, NMR LipoProfile; format: in vivo
Experimental: Note that where TRL V6 response can be equated with the response of a combination of subtypes, it is because the magnitude of the change in signal, which is due to the change of TRL V6 signal, is sufficiently large compared to the base line signal, to be a significant difference (i.e. the signal from TRL V6 in the base line signal dominates the combined signal so that a change in TRL V6 is reliably detected).
A SNDRI (sibutramine) known to be able to induce weight loss in humans is tested to correlate its ability to reduce TRL V6 response plasma concentrations and V-TRL response in humans in an exploratory biomarker study employing a single-blind, crossover design, comparing sibutramine and placebo in hypertriglyceridemic and overweight and obese but otherwise healthy subjects.
Three cohorts containing 6 subjects each, undergo three periods during the study. Subjects are fasted overnight and two fasting blood draws are obtained, followed by breakfast at approximately 07:00 hours. Placebo or sibutramine is administered at approximately 10:00 hours. Blood sampling is begun approximately 1 hr. after the start of breakfast and continues at hourly intervals for 7 hr., and then every 2 hr. for the next 10 hr. A lunch according to Example fat load 2 is served at approximately 12:00 hours (approximately 60 to 65 g of fat). No other food is permitted until 12 hr. post fat load administration. Subjects are released after the last blood sampling for a 4 to 8-day washout period before return for the second testing period of the study. After the washout period, subjects are again fasted overnight. The procedures are then repeated as in the first testing period of the study except that each subject crosses over to receive the alternate treatment, sibutramine or placebo. Blood samples are collected, processed and analyzed essentially as described in Example 1 above.
TRL V6 responses and V-TRL responses are observed during the period from 5 to 11 hr. post fat load. […] In most subjects, the administration of sibutramine reduced the magnitude of the TRL V6 response and V-TRL response compared to their placebo-treated responses. Thus the reduction of the TRL V6 response and V-TRL response induced by the SNDRI correlates with the SNDRI known ability to induce weight loss in humans.

[3] = rats, 2 hr. post dose, 5-HT2C agonist 10 mg/kg, naltrexone 10 mg/kg oral
[4] = rats, 5-HT2C agonist 10 mg/kg, CB-1 antagonist 0.3 mg/kg, naltrexone 10 mg/kg oral
[5] = AUC 5-11 hr. time points from lipid load
[6] = AUC 5-11 hr. time points from lipid load, chylomicrons
[7] = versus placebo, 5-11 hr. post fat load
[8] = rats, 5 hr. post dose, CB-1 antagonist 0.3 mg/kg

## O=C1CC[C@@]2(O)[C@H]3Cc4ccc(O)c5c4[C@@]2(CCN3CC2CC2)[C@H]1O5 [Naltrexone, naltrexone]
[1]
  Reduction in TRL V6 Response T1-(ie 2 hrs): 30%
  Reduction in TRL V6 Response T2-(ie 5 hrs): 0%
  Reduction in TRL V6 Response T3-(ie 18 hrs): 0%
[1]; rats, 10 mg/kg oral, 18 hr. post dose
  TRL V6 level at 18 hr. post dose (in words): unchanged
[1]; rats, 10 mg/kg orally administrated dose
  effect on circulating TRL V6 levels (in words): minimal effect
[1]; [3]
  reduction of circulating concentration of TRL V6: 30%
[1]; [4]
  time by which TRL V6 plasma concentration returns to baseline: 5 h

## CC(C)CC(N(C)C)C1(c2ccc(Cl)cc2)CCC1 (stereo not drawn) [Sibutramine, sibutramine]
[2]; AUC 5-11 hr. post fat load, mixed effects model, average of treated arms
  decrease in the TRL V6 response versus placebo: about 28%
[2]; [5]
  Geometric LS Mean of AUC, analyte TRL V5: 222.34
  Geometric LS Mean of AUC, analyte TRL V6: 119.35
  Geometric LS Mean of AUC, analytes TRL V6 + Chy: 205.0
  Geometric LS Mean of AUC, analytes TRL V6 + TRL V5: 364.08
  Geometric LS Mean of AUC, analytes TRL V6 + V5 + Chy: 458.04
  Sibutramine/Placebo Ratio of AUC, analyte TRL V5: 1.10
  Sibutramine/Placebo Ratio of AUC, analyte TRL V6: 0.73
  Sibutramine/Placebo Ratio of AUC, analytes TRL V6 + Chy: 0.81
  Sibutramine/Placebo Ratio of AUC, analytes TRL V6 + TRL V5: 0.88
  Sibutramine/Placebo Ratio of AUC, analytes TRL V6 + V5 + Chy: 0.89
[2]; [6]
  Geometric LS Mean of AUC, analyte Chy: 81.11
  Sibutramine/Placebo Ratio of AUC, analyte Chy: 0.98
[2]; [7]
  change in mean V-TRL response (in words): statistically significant decrease
  change in plasma concentrations of TRL V1, V2, V3, V4, or V5 subtypes (in words): does not show a significant change
[1]
  Reduction in TRL V6 Response T1-(ie 2 hrs): 78%
  Reduction in TRL V6 Response T2-(ie 5 hrs): 78%
  Reduction in TRL V6 Response T3-(ie 18 hrs): 0%
[1]; [3]
  reduction of circulating concentration of TRL V6: about 78%
[1]; rats, 2 hr. post dose
  reduction of circulating TRL V6 concentration: about 78%
[1]; [8]
  reduction of circulating TRL V6 concentration: about 78%
  reduction of circulating concentration of TRL V6: about 78%
[1]; [4]
  time by which TRL V6 plasma concentration returns to baseline: about 18 hr
